Measured values as given in patent US20110003865A1, “NOVEL 2-DIETHYLAMINO-3-AMIDO-6-AMINO-PYRIDINE DERIVATIVES USEFUL AS POTASSIUM CHANNEL ACTIVATORS” (priority 2007, published 2011).

Molecular target: T1, human Kv72+3 channels (Homo sapiens, UniProt O43525+O43526)
T1 construct: expressed in transfected cells; host or cells: HEK293
Assay: Patch-clamp, HEK293 cells stably expressing human Kv7.2+3 channels
Assay type: cell-based
Details: conc. 0.03 μM, −30 mV, 20 ms; current relative to baseline current defined as 100%
From the text: The effect obtained by these channel activators is described as a percentage increase in baseline current at a given concentration. The baseline current is defined as 100%, and an increase in current is expressed relative to this, i.e. an increase from 1 nA to 1.2 nA is reported as 120%.

T1 sequence (O43526 whole entry): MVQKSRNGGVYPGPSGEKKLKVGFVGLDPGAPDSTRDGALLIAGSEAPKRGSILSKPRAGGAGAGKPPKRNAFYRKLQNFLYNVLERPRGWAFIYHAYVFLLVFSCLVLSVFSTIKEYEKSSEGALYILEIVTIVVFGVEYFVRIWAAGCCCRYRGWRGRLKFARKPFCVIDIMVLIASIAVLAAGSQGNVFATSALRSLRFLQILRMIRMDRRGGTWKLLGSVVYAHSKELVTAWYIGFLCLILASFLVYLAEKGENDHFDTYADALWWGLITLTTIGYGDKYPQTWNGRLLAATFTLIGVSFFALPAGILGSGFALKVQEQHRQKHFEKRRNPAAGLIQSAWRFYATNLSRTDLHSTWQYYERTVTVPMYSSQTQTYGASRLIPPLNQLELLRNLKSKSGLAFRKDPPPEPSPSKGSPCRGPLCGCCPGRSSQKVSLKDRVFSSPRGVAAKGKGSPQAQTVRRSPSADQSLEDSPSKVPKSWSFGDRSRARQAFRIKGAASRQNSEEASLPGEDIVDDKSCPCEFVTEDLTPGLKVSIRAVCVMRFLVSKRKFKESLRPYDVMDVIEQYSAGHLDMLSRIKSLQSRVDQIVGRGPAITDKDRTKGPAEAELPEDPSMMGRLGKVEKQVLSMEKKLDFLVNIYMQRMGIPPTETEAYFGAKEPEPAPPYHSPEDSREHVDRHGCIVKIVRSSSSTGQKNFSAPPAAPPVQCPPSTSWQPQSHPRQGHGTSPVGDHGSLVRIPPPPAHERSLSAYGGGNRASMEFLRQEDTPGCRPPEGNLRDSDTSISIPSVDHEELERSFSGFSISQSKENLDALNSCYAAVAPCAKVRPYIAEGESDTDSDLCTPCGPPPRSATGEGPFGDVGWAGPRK
T1 sequence (O43525 whole entry): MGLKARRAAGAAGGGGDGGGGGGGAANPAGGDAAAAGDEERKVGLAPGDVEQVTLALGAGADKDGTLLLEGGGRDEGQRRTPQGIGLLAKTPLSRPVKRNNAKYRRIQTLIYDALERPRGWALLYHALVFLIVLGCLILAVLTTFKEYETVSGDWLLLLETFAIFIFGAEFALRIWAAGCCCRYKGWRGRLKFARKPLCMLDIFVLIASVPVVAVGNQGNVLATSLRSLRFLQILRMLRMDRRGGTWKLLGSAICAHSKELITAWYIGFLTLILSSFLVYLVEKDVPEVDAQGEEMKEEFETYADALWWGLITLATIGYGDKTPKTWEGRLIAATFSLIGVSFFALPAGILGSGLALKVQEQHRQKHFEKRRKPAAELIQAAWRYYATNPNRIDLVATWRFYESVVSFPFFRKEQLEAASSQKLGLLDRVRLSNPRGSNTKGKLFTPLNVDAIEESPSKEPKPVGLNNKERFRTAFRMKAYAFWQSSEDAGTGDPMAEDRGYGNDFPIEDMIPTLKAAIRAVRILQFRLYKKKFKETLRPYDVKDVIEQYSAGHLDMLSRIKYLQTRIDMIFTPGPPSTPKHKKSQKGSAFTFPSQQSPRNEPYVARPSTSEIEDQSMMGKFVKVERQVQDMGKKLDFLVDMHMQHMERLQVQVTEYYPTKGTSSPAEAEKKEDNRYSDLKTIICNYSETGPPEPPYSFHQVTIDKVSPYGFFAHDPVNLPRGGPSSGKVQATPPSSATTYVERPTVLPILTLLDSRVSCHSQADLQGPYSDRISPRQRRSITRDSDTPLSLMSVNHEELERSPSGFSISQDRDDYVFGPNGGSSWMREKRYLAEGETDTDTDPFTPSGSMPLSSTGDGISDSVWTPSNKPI

IK (%)	SMILES
282%	CCN(CC)c1nc(NCc2ccc(F)cc2)ccc1NC(=O)Cc1ccc(C(F)(F)F)c(F)c1 [Compound 3, N-[2-Diethylamino-6-(4-fluoro-benzylamino)-pyridin-3-yl]-2-(3-fluoro-4-trifluoromethyl-phenyl)-acetamide]
334%	CCN(CC)c1nc(NCc2ccc(F)cc2)ccc1NC(=O)[C@@H](C)c1ccccc1 [Compound 4, (S)—N-[2-Diethylamino-6-(4-fluoro-benzylamino)-pyridin-3-yl]-2-phenyl-propionamide]
1247%	CCN(CC)c1nc(NCc2ccc(F)cc2)ccc1NC(=O)Cc1cc(F)cc(F)c1 [Compound 1, N-[2-Diethylamino-6-(4-fluoro-benzylamino)-pyridin-3-yl]-2-(3,5-difluoro-phenyl)-acetamide]
520%	CCN(CC)c1nc(NCc2ccc(F)cc2)ccc1NC(=O)[C@@H]1C[C@H]1c1ccccc1 (relative stereo) [Compound 7, trans-2-Phenyl-cyclopropanecarboxylic acid [2-diethylamino-6-(4-fluoro-benzylamino)-pyridin-3-yl]-amide]
550%	CCN(CC)c1nc(NCc2ccc(F)cc2)ccc1NC(=O)CC(C)(C)C [Compound 9, N-[2-Diethylamino-6-(4-fluoro-benzylamino)-pyridin-3-yl]-3,3-dimethyl-butyramide]
